We go through eight compounds from PubChem BioAssay (NCI).

Where “and” joins values, the source holds several entries; their conditions need not be identical. Equal entries are not always repeated.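 Tested at 5 concentrations; 48 h exposure; 96-well plates; endpoints linearly interpolated, else capped at highest concentration. GI50 = concentration required for 50% inhibition of growth. Definition used: TGI = concentration required for complete inhibition of growth.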 Bounds are passed on as bounds.

Among the test systems are NCI-H23 lung; A498 renal; HCT-116 colon; HT29 colon; SW-620 colon; ACHN renal; KM12 colon; EKVX NSCLC; MDA-MB-435; CAKI-1 renal.
Holding throughout (test): NCI tumour cell line growth inhibition, 48 h

Take `CCSc1nc(N)c2cnn(C)c2n1`: the GI50 in the test on NCI-H23 lung was 41.5 µM; with A498 renal it was 3.26 µM; in the test with HCT-116 colon, 28.9 µM; in the test with HT29 colon, 58.4 µM; in the test with SW-620 colon, 34.2 µM; in the test on ACHN renal it was 44.4 µM. Also, the GI50 in the test on KM12 colon was 34.6 µM; in the test on EKVX NSCLC, 56.7 µM; with MDA-MB-435, 38.7 µM; in the test with CAKI-1 renal, 25.9 µM. Further, the TGI in the test on NCI-H23 lung is above 100 µM; with A498 renal, 21.5 µM; with HCT-116 colon, above 100 µM; with HT29 colon it was above 100 µM; with SW-620 colon, above 100 µM; in the test with ACHN renal, above 100 µM. Also, the TGI in the test on KM12 colon, in the test on EKVX NSCLC, in the test with MDA-MB-435 and in the test on CAKI-1 renal was above 100 µM in each case.
In the case of `COc1cc(C(=O)/C=C/c2c(C(F)(F)F)nc3sccn23)cc(OC)c1OC`, the GI50 with NCI-H23 lung was 1.72 µM; in the test with A498 renal, 1.89 µM; in the test on HCT-116 colon it was 1.01 µM; with HT29 colon, 1.83 µM; in the test with SW-620 colon it was 1.67 µM; in the test with ACHN renal, 1.82 µM. The GI50 is 1.47 µM in the test on KM12 colon, 2.72 µM in the test with EKVX NSCLC, 1.61 µM with MDA-MB-435 and 1.76 µM in the test with CAKI-1 renal. For the same compound, the TGI with NCI-H23 lung amounted to 3.89 µM; in the test with A498 renal it was 3.42 µM; in the test with HCT-116 colon, 2.19 µM; in the test on HT29 colon, 4.08 µM; in the test with SW-620 colon, 3.56 µM; with ACHN renal it was 3.66 µM. Moreover, the TGI in the test on KM12 colon was 2.97 µM; in the test on EKVX NSCLC, 10.7 µM; in the test with MDA-MB-435, 4.35 µM; in the test with CAKI-1 renal it was 5.31 µM.
For the compound `CCCCCCN(CCCCCC)CC(O)c1cccc2ccc(Cl)cc12` (stereo not given), the GI50 in the test with NCI-H23 lung is 5.42 µM; in the test on A498 renal it was 10.4 µM; in the test on HCT-116 colon, 3.09 µM; in the test with HT29 colon, 3.86 µM; with SW-620 colon, 3.82 µM; in the test with ACHN renal, 5.89 µM. In addition, the GI50 in the test on KM12 colon was 5.48 µM; in the test on EKVX NSCLC it was 10.5 µM; in the test on MDA-MB-435 it was 10.2 µM; with CAKI-1 renal it was 2.64 µM. The TGI is 19.5 µM in the test on NCI-H23 lung; 22.3 µM with A498 renal; 14.2 µM in the test on HCT-116 colon; 18.5 µM in the test with HT29 colon; 15 µM in the test with SW-620 colon; 18.8 µM in the test on ACHN renal. For the same compound, the TGI in the test on KM12 colon is 19.6 µM; with EKVX NSCLC, 25.5 µM; in the test with MDA-MB-435, 29.4 µM; in the test on CAKI-1 renal, 14.7 µM.
`COc1cc(OC)c(/C=C/S(=O)(=O)Cc2ccc(OC)c(NCC(=O)O)c2)c(OC)c1`: the GI50 in the test with NCI-H23 lung was 0.263 µM and 0.136 µM; with A498 renal, 0.0668 µM and 0.0448 µM; in the test with HCT-116 colon, 0.119 µM and 0.0934 µM; in the test with HT29 colon, 0.334 µM and 0.328 µM; in the test with SW-620 colon, 0.13 µM and 0.108 µM; with ACHN renal, 0.178 µM and 0.452 µM. Moreover, the GI50 was 0.103 µM and 0.0499 µM in the test on KM12 colon; 0.127 µM and 0.0834 µM with EKVX NSCLC; 0.0312 µM and 0.0283 µM in the test on MDA-MB-435. The TGI with NCI-H23 lung was above 100 µM; in the test with HCT-116 colon it was above 10 µM; in the test with HT29 colon, > 8.57 µM and 1.4 µM; in the test with SW-620 colon, above 100 µM; in the test with ACHN renal, above 100 µM; with KM12 colon, above 10 µM. Besides, the TGI in the test on EKVX NSCLC was above 100 µM; in the test with MDA-MB-435, 0.115 µM and 0.111 µM; in the test with CAKI-1 renal, above 100 µM.
Consider `CC(=O)N[C@@H]1CCC[C@H](C(=O)Nc2cc(-c3cnn4c3CC(C)(C)C4)c(Cl)cn2)C1`, for which the GI50 with NCI-H23 lung is below 0.0116 µM; with A498 renal, below 0.01 µM; in the test on HCT-116 colon it was below 0.01 µM; with HT29 colon it was below 0.0108 µM; in the test on SW-620 colon it was below 0.01 µM; in the test with ACHN renal, below 0.015 µM. The GI50 is below 0.01 µM with KM12 colon, 0.0197 µM with EKVX NSCLC, below 0.013 µM in the test on MDA-MB-435 and below 0.01 µM in the test on CAKI-1 renal. Also, the TGI in the test with NCI-H23 lung was 0.181 µM; in the test with A498 renal it was 0.0313 µM; with HCT-116 colon, above 100 µM; with HT29 colon it was above 100 µM; in the test on SW-620 colon, above 100 µM; in the test with ACHN renal, above 100 µM. For the same compound, the results for the TGI in the test with KM12 colon, with MDA-MB-435 and in the test with CAKI-1 renal were 12.2 µM, 11.9 µM and above 100 µM, respectively.
With `COc1cc(OC)cc(N2CCN(C(=O)Nc3nc4cc(F)ccc4nc3OC)CC2)c1`, the GI50 was 0.0578 µM and 0.062 µM and 0.052 µM in the test on NCI-H23 lung; < 0.0164 µM and 0.0126 µM in the test on A498 renal; 0.0381 µM and 0.0332 µM and 0.0334 µM with HCT-116 colon; 0.0343 µM and 0.0372 µM and 0.0306 µM with HT29 colon; 0.0283 µM and 0.0372 µM and 0.0395 µM with SW-620 colon; 0.0129 µM and 0.0608 µM and 0.0408 µM with ACHN renal. The GI50 in the test on KM12 colon was 0.0282 µM and 0.0358 µM and 0.0302 µM; in the test on EKVX NSCLC it was 0.0543 µM and 0.345 µM and 0.0636 µM; in the test with MDA-MB-435, < 0.01 µM and 0.01 µM; with CAKI-1 renal, 0.0401 µM and 0.034 µM. Further, the TGI in the test with NCI-H23 lung is 52.2 µM and 34.5 µM; in the test with HCT-116 colon it was 1.54 µM and 0.214 µM; with SW-620 colon it was above 100 µM; with ACHN renal it was 25.6 µM and > 100 µM; with KM12 colon, above 100 µM; in the test with EKVX NSCLC, > 87.1 µM and 66.6 µM. Besides, the TGI with MDA-MB-435 is 0.0215 µM and 0.0336 µM; in the test on CAKI-1 renal, above 100 µM.
On to `CN1CC(C(=O)NC2(C)OC3(O)C4CCCN4C(=O)C(Cc4ccccc4)N3C2=O)C=C2c3cccc4[nH]cc(c34)CC21` (stereo not given), for which the TGI is 46.9 µM in the test with NCI-H23 lung; 30.9 µM in the test with A498 renal; 48.7 µM with HCT-116 colon; 71.1 µM with HT29 colon; above 100 µM in the test on SW-620 colon; 55.1 µM in the test with ACHN renal. In addition, the TGI in the test with KM12 colon was 99.6 µM; in the test with EKVX NSCLC, above 100 µM; in the test with MDA-MB-435, 50.7 µM; in the test on CAKI-1 renal it was 92 µM.
As to `COc1cc(C(=O)N/N=C/c2cccc([N+](=O)[O-])c2)cc(OC)c1OC`, the GI50 in the test with NCI-H23 lung was 5.96 µM; with A498 renal, 1.79 µM; with HCT-116 colon it was 4.09 µM; in the test with HT29 colon it was 2.89 µM; with SW-620 colon, 3.15 µM; with ACHN renal it was 26.7 µM. Also, the GI50 in the test on KM12 colon was 2.41 µM; in the test on EKVX NSCLC, 18.7 µM; in the test on MDA-MB-435, 1.09 µM; with CAKI-1 renal, 2.53 µM. Further, the TGI in the test on NCI-H23 lung was above 100 µM; in the test on A498 renal, 7.29 µM; in the test on HCT-116 colon, above 100 µM; in the test on HT29 colon, 8.1 µM; in the test on SW-620 colon it was above 100 µM; with ACHN renal it was above 100 µM. Besides, the TGI in the test on KM12 colon was above 100 µM; in the test with EKVX NSCLC, above 100 µM; in the test with MDA-MB-435 it was 3.88 µM; with CAKI-1 renal it was 11.9 µM.
